Measured values as given in patent US10471010B2, “Liposomal corticosteroids for treatment of inflammatory disorders in humans” (ENCELADUS PHARMACEUTICALS B.V., priority 2011, dated 2019).

Key:
[1] = tested on: rats with adjuvant-induced arthritis; assay: Rat adjuvant-induced arthritis, paw inflammation scores; format: in vivo, Lewis rats; conditions: for effect on the course of the disease: single injection, equal dose (10 mg/kg), 10 mg/kg
Protocol: Lewis rats were immunized subcutaneously at the tail base with heat-inactivated Mycobacterium tuberculosis in incomplete Freund's adjuvant. […] Assessment of the disease was performed by visually scoring paw inflammation severity, maximum score 4 per paw, and measuring disease-induced body weight loss. The therapeutic efficacy of liposomal prednisolone phosphate on these variables was compared with equal doses unencapsulated drug. Rats were treated when the average score >6 (at day 14 or 15 after disease induction).

[2] = potency of prednisolone set to 1; cited from earlier work

| SMILES | average inflammation scores ([1]; 20 mg/kg daily for 7 days, day 15 until day 21, from average 6.5 on day 14) | effect of repeated daily treatment ([1]; repeated daily treatment) | effect on the course of the disease [1] | effect on the course of the disease ([1]; listed as free prednisolone) | potency ratio as compared to prednisolone [2] |
| --- | --- | --- | --- | --- | --- |
| C[C@]12C=CC(=O)C=C1CC[C@@H]1[C@@H]2[C@@H](O)C[C@@]2(C)[C@H]1CC[C@]2(O)C(=O)COP(=O)(O)O [Unencapsulated prednisolone phosphate, prednisolone phosphate] | around 5.0 | short-lasting moderate effect | did not significantly alter the course of the disease | not effective |  |
| CC(=O)OCC(=O)[C@@]1(O)CC[C@H]2[C@@H]3CCC4=CC(=O)CC[C@]4(C)[C@@]3(F)[C@@H](O)C[C@@]21C [fludrocortisone acetate] |  |  |  |  | 3.5 |
| C[C@]12C=CC(=O)C=C1CC[C@H]1[C@@H]3C[C@@H](O)[C@](O)(C(=O)CO)[C@@]3(C)C[C@H](O)[C@@]12F [triamcinolone] |  |  |  |  | 1.25 |
